Measurements as given in patent US10986838B2, “Herbicides” (SYNGENTA PARTICIPATIONS AG, priority 2016, dated 2021).

Experiments:
Assay type in all cases: in vivo
[1] = tested on: Alopecurus myosuroides (ALOMY); test: Pre-emergence herbicidal activity (B1); conditions: Test 1a, 1000 g/ha, evaluated after 13 days, 5=total damage to plant, 0=no damage to plant
Description: (§1) B1 Pre-Emergence Herbicidal Activity Seeds of a variety of test species were sown in standard soil in pots: Triticum aestivium (TRZAW), Avena fatua (AVEFA), Alopecurus myosuroides (ALOMY), Echinochloa crus-galli (ECHCG), Lolium perenne (LOLPE), Zea Mays (ZEAMX), Abutilon theophrasti (ABUTH), Amaranthus retroflexus (AMARE) and Setaria faberi (SETFA). After cultivation for one day (pre-emergence) under controlled conditions in a glasshouse (at 24/16° C., day/night; 14 hours light; 65% humidity), the plants were sprayed with an aqueous spray solution derived from the formulation of the technical active ingredient in acetone/water (50:50) solution containing 0.5% Tween 20 (polyoxyethelyene sorbitan monolaurate, CAS RN 9005-64-5). The test plants were then grown in a glasshouse under controlled conditions (at 24/16° C., day/night; 14 hours light; 65% humidity) and watered twice daily. After 13 days, the test was evaluated (5=total damage to plant; 0=no damage to plant). Tables B1a and B1b Control of Weed Species by Compound of Formula (I) after Pre-Emergence Application

Avena fatua (AVEFA) [2] = test: Pre-emergence herbicidal activity (B1); conditions: Test 1a, 1000 g/ha, evaluated after 13 days, 5=total damage to plant, 0=no damage to plant
Description: as §1

[3] = tested on: Echinochloa crus-galli (ECHCG); test: Pre-emergence herbicidal activity (B1); conditions: Test 1a, 1000 g/ha, evaluated after 13 days, 5=total damage to plant, 0=no damage to plant
Description: as §1

Lolium perenne (LOLPE) [4] = test: Pre-emergence herbicidal activity (B1); conditions: Test 1a, 1000 g/ha, evaluated after 13 days, 5=total damage to plant, 0=no damage to plant
Description: as §1

Setaria faberi (SETFA) [5] = test: Pre-emergence herbicidal activity (B1); conditions: Test 1a, 1000 g/ha, evaluated after 13 days, 5=total damage to plant, 0=no damage to plant
Description: as §1

[6] = tested on: Triticum aestivium (TRZAW); test: Pre-emergence herbicidal activity (B1); conditions: Test 1a, 1000 g/ha, evaluated after 13 days, 5=total damage to plant, 0=no damage to plant
Description: as §1

[7] = tested on: Alopecurus myosuroides (ALOMY); test: Post-emergence herbicidal activity (B2); conditions: Test B2a, 1000 g/ha, evaluated after 13 days, 5=total damage to plant, 0=no damage to plant
Description: (§2) B2 Post-Emergence Herbicidal Activity Seeds of a variety of test species were sown in standard soil in pots: Triticum aestivium (TRZAW), Avena fatua (AVEFA), Alopecurus myosuroides (ALOMY), Echinochloa crus-galli (ECHCG), Lolium perenne (LOLPE), Zea Mays (ZEAMX), Abutilon theophrasti (ABUTH), Amaranthus retroflexus (AMARE) and Setaria faberi (SETFA). After 8 days cultivation (post-emergence) under controlled conditions in a glasshouse (at 24/16° C., day/night; 14 hours light; 65% humidity), the plants were sprayed with an aqueous spray solution derived from the formulation of the technical active ingredient in acetone/water (50:50) solution containing 0.5% Tween 20 (polyoxyethelyene sorbitan monolaurate, CAS RN 9005-64-5). The test plants were then grown in a glasshouse under controlled conditions (at 24/16° C., day/night; 14 hours light; 65% humidity) and watered twice daily. After 13 days, the test was evaluated (5=total damage to plant; 0=no damage to plant). Tables B2a and B2b Control of Weed Species by Compound of Formula (I) after Post-Emergence Application

Avena fatua (AVEFA) [8] = test: Post-emergence herbicidal activity (B2); conditions: Test B2a, 1000 g/ha, evaluated after 13 days, 5=total damage to plant, 0=no damage to plant
Description: as §2

[9] = tested on: Echinochloa crus-galli (ECHCG); test: Post-emergence herbicidal activity (B2); conditions: Test B2a, 1000 g/ha, evaluated after 13 days, 5=total damage to plant, 0=no damage to plant
Description: as §2

Lolium perenne (LOLPE) [10] = test: Post-emergence herbicidal activity (B2); conditions: Test B2a, 1000 g/ha, evaluated after 13 days, 5=total damage to plant, 0=no damage to plant
Description: as §2

Setaria faberi (SETFA) [11] = test: Post-emergence herbicidal activity (B2); conditions: Test B2a, 1000 g/ha, evaluated after 13 days, 5=total damage to plant, 0=no damage to plant
Description: as §2

[12] = tested on: Triticum aestivium (TRZAW); test: Post-emergence herbicidal activity (B2); conditions: Test B2a, 1000 g/ha, evaluated after 13 days, 5=total damage to plant, 0=no damage to plant
Description: as §2

Compound	ALOMY damage score [1]	AVEFA damage score (Avena fatua (AVEFA) [2])	ECHCG damage score [3]	LOLPE damage score (Lolium perenne (LOLPE) [4])	SETFA damage score (Setaria faberi (SETFA) [5])	TRAZW damage score [6]	ALOMY damage score [7]	AVEFA damage score (Avena fatua (AVEFA) [8])	ECHCG damage score [9]	LOLPE damage score (Lolium perenne (LOLPE) [10])	SETFA damage score (Setaria faberi (SETFA) [11])	TRAZW damage score [12]
CCCCCCNc1ccc(-c2cncc(F)c2)nc1C(F)(F)F [Compound A42]	0	2	4	1	5	0	1	3	5	2	5	1
COc1nc(-c2cncc(F)c2)ccc1N [Compound A43]	0	0	0	1	1	0	0	1	1	1	2	0
N#Cc1nc(-c2cncnc2)ccc1N [Compound A44]	0	1	3	2	5	0	0	2	3	1	4	0
Fc1cncc(-c2ccc(NC3CC3)c(C(F)(F)F)n2)c1 [Compound A46]	0	1	2	0	4	0	1	3	4	2	4	1
CCCNc1ccc(-c2cncc(F)c2)nc1C(F)(F)F [Compound A47]	0	1	3	1	4	0	0	2	4	2	5	2
CCCN(CCC)c1ccc(-c2cncc(F)c2)nc1C(F)(F)F [Compound A48]	0	0	4	0	4	0	0	3	4	2	5	1
Fc1cncc(-c2ccc(NCCc3ccccc3)c(C(F)(F)F)n2)c1 [Compound A49]	0	1	3	1	5	0	0	3	3	3	5	0
Nc1ccc(-c2cncc(F)c2)nc1-c1ccccc1 [Compound A50]	0	0	1	0	1	0	0	0	1	0	2	0
